Measurements: US7037939B2, “Compound and derivative of gabapentin” (Industrial Technology Research Institue, priority 2002, dated 2006)
Counter-ions that a name gives are not always drawn.

Tested on: Caco-2 cell
Assay: Caco-2 monolayer cell transmission rate (in vitro intestinal absorption model)
Type: in vitro ADME, human
Source text: The common use of the activity selection model for the in vitro intestinal absorption comprises: (1) Carcinoms (Caco-2); (2) Using Chamber; (3) Everted Gut Sac. Basically, there is no difference for those three drug-activity-selection models when they are used for evaluating the activity selection. However, in terms of the cell source from human, a cell line is predominant. Moreover, with the cellular metabolism being similar to human intestines, Caco-2 becomes an excellent tool in the study of intestine absorption. Therefore, in the comparison of the in vitro transmission rate between gabapentin and gabapentin derivatives, the Caco-2 system is still the favorable model.
The research for studying gabapentin and the derivatives thereof in the present invention includes: Caco-2 cell activation, Caco-2 monolayer cell cultivation, resistance value measurement, effect of time to gabapentin transmission rate, and comparison of transmission rate between gabapentin and gabapentin derivatives. In constructing the Caco-2 monolayer, the original cell line is the human colon adenocarcinoma cell (Caco-2), and its data sheet is listed as Table 2.
The Caco-2 cell is activated appropriately, and seeded in the transwell at 37° C. in an amount of about 1×10^5. The aliquot is cultivated in 5% CO2 at 37° C. and replaced with a fresh medium every 3 to 4 days, and then the monolayer cell is obtained by the 21 days cultivation. The integrity of the Caco-2 cell is further characterized by tissue section and resistance value measurement.
HPLC Analysis: Intersil ODS-3V 250*4.6 mm column, Solvent: MeOH/H2O=10:90 to 70:30 with 0.1% of NH4OAc, Flow rate=1.0 ml/min, ELSD: Evaporative Light Scattering Detector. Every derivative has been repeated for 3 times in analysis, 4 hr later, the sample is analyzed for the transmission rate and then averaged to account its transmission fold.

[1] = Caco-2 monolayer, 4 h, mean of 3 repeats, HPLC-ELSD
[2] = ratio of Caco-2 transmission rate to GBP.HCl, 4 h

| Structure (SMILES) | Caco-2 Cell Mean Total Transmission rate 4 h (%) [1] [%] | gbp-prodrug/gbp Transmission Fold [2] [Fold] | Caco-2 Cell Mean Total Transmission rate 4 h (%) (human, Caco-2, 4 h) | gbp-prodrug/gbp Transmission Fold (human, Caco-2, 4 h) [Fold] |
| --- | --- | --- | --- | --- |
| CC(C)(C)OC(=O)NC(Cc1ccccc1)C(=O)NCC1(CC(=O)O)CCCCC1 (stereo not drawn) [Embodiment 15, {1-[(2-tert-Butoxycarbonylamino-3-phenyl-propionylamino)-methyl]-cyclohexyl}-acetic acid] | 0.93 | 0.8 |  |  |
| CCOC(=O)CC1(CNC(=O)C2(N)CCCCC2)CCCCC1 [Embodiment 9, (1-{[(1-Amino-cyclohexanecarbonyl)-amino]-methyl}-cyclohexyl)-acetic acid ethyl ester] |  |  | 10.4 | 9.5 |
| CCOC(=O)CC1(CNC(=O)c2ccc(O)c(OC)c2)CCCCC1 [Embodiment 24, {1-[(4-Hydroxy-3-methoxy-benzoylamino)-methyl]-cyclohexyl}-acetic acid ethyl ester] |  |  | 13.59 | 12.4 |
| CCOC(=O)CC1(CNC(=O)C(N)c2ccccc2)CCCCC1 (stereo not drawn) [Embodiment 30, {1-[(2-Amino-2-phenyl-acetylamino)-methyl]-cyclohexyl}-acetic acid ethyl ester] |  |  | 11.87 | 10.8 |
| CCOC(=O)CC1(CNC(=O)C(N)C(C)C)CCCCC1 (stereo not drawn) [Embodiment 29, {1-[(2-Amino-3-methyl-butyrylamino)-methyl]-cyclohexyl}-acetic acid ethyl ester] |  |  | 8.73 | 7.9 |
| CC(C)C[C@@H](NC(=O)OC(C)(C)C)C(=O)NCC1(CC(=O)O)CCCCC1 [Embodiment 1, {1-[(2R-tert-Butoxycarbonylamino-4-methyl-pentanoylamino)-methyl]-cyclohexyl}-acetic acid] | 29 | 26.4 |  |  |
| CCOC(=O)CC1(CNC(=O)C(N)c2ccc(O)cc2)CCCCC1 (stereo not drawn) [Embodiment 35, (1-{[2-Amino-2-(4-hydroxy-phenyl)-acetylamino]-methyl}-cyclohexyl)-acetic acid ethyl ester] |  |  | 10.33 | 9.4 |
| CCOC(=O)CC1(CNC(=O)C(N)CCSC)CCCCC1 (stereo not drawn) [Embodiment 26, {1-[(2-Amino-4-methylsulfanyl-butyrylamino)-methyl]-cyclohexyl}-acetic acid ethyl ester] |  |  | 9.02 | 8.2 |
| CCOC(=O)CC1(CNC(=O)C(N)Cc2ccccc2)CCCCC1 (stereo not drawn) [Embodiment 16, {1-[(2-Amino-3-phenyl-propionylamino)-methyl]-cyclohexyl}-acetic acid ethyl ester] |  |  | 10.30 | 9.4 |
| CCOC(=O)CC1(CNC(=O)C(NC(=O)OC(C)(C)C)c2ccc(O)cc2)CCCCC1 (stereo not drawn) [Embodiment 38, (1-{[2-tert-Butoxycarbonylamino-2-(4-hydroxy-phenyl)-acetylamino]-methyl}-cyclohexyl)-acetic acid ethyl ester] | 5.05 | 4.6 |  |  |
| CCOC(=O)CC1(CNC(=O)CCNC(=O)c2cccnc2)CCCCC1 [Embodiment 36, [1-({3-[(Pyridine-3-carbonyl)-amino]-propionylamino}-methyl)-cyclohexyl]-acetic acid ethyl ester] | 9.00 | 8.2 |  |  |
| CCOC(=O)CC1(CNC(=O)C(N)CC(C)C)CCCCC1 (stereo not drawn) [Embodiment 13, {1-[(2-Amino-4-methyl-pentanoylamino)-methyl]-cyclohexyl}-acetic acid ethyl ester] |  |  | 12.37 | 11.2 |
| CCOC(=O)CC1(CNC(=O)c2ccccc2CN)CCCCC1 [Embodiment 18, {1-[(2-Aminomethyl-benzoylamino)-methyl]-cyclohexyl}-acetic acid ethyl ester] |  |  | 2.13 | 1.9 |
| CSCCC(NC(=O)OC(C)(C)C)C(=O)NCC1(CC(=O)O)CCCCC1 (stereo not drawn) [Embodiment 5, {1-[(2-tert-Butoxycarbonylamino-4-methylsulfanyl-butyrylamino)-methyl]-cyclohexyl}-acetic acid] | 26 | 23.6 |  |  |
| CCOC(=O)CC1(CNC(=O)C(N)CCc2ccccc2)CCCCC1 (stereo not drawn) [Embodiment 32, {1-[(2-Amino-4-phenyl-butyrylamino)-methyl]-cyclohexyl}-acetic acid ethyl ester] |  |  | 1.76 | 1.6 |
| CCOC(=O)CC1(CNC(=O)c2cccnc2)CCCCC1 [Embodiment 27, (1-{[(Pyridine-3-carbonyl)-amino]-methyl}-cyclohexyl)-acetic acid ethyl ester] |  |  | 9.39 | 8.5 |
| CCOC(=O)CC1(CNC(=O)C(N)CO)CCCCC1 (stereo not drawn) [Embodiment 14, {1-[(2-Amino-3-hydroxy-propionylamino)-methyl]-cyclohexyl}-acetic acid ethyl ester] |  |  | 10.95 | 10.0 |
| CCOC(=O)CC1(CNC(=O)C2CSCN2C(=O)OC(C)(C)C)CCCCC1 (stereo not drawn) [Embodiment 37, 4-[(1-Ethoxycarbonylmethyl-cyclohexylmethyl)-carbamoyl]-thiazolidine-3-carboxylic acid tert-butyl ester] | 6.13 | 5.6 |  |  |
| NCC1(CC(=O)O)CCCCC1 [Control 1, Gabapentin HCl, reference compound] | 1.1 | 1 |  |  |
| CCOC(=O)CC1(CNC(=O)C(N)c2cc3ccccc3[nH]2)CCCCC1 (stereo not drawn) [Embodiment 33, (1-{[2-Amino-2-(1H-indol-2-yl)-acetylamino]-methyl}-cyclohexyl)-acetic acid ethyl ester] | 9.97 | 9.1 |  |  |
| CCOC(=O)CC1(CNC(=O)C(C)N)CCCCC1 (stereo not drawn) [Embodiment 11, {1-[(2-Amino-propionylamino)-methyl]-cyclohexyl}-acetic acid ethyl ester] |  |  | 17.6 | 16.0 |
| CCOC(=O)CC1(CNC(=O)C(N)C(C)CC)CCCCC1 (stereo not drawn) [Embodiment 17, {1-[(2-Amino-3-methyl-pentanoylamino)-methyl]-cyclohexyl}-acetic acid ethyl ester] |  |  | 9.47 | 8.6 |
| CCOC(=O)CC1(CNC(=O)C2CCC(=O)N2)CCCCC1 (stereo not drawn) [Embodiment 25, (1-{[(5-Oxo-pyrrolidine-2-carbonyl)-amino]-methyl}-cyclohexyl)-acetic acid ethyl ester] |  |  | 5.68 | 5.2 |
| CC(C)(C)OC(=O)NC(Cc1ccccc1)C(=O)NCC1(CC(=O)O)CCCCC1 (stereo not drawn) [Embodiment 4, {1-[(2-tert-Butoxycarbonylamino-3-phenyl-propionylamino)-methyl]-cyclohexyl}-acetic acid] | 10 | 9.1 |  |  |
| CCOC(=O)CC1(CNC(=O)C2CSCN2)CCCCC1 (stereo not drawn) [Embodiment 34, (1-{[(Thiazolidine-4-carbonyl)-amino]-methyl}-cyclohexyl)-acetic acid ethyl ester] |  |  | 4.50 | 4.1 |
| CCOC(=O)CC1(CNC(=O)C(N)CCc2ccccc2)CCCCC1 (stereo not drawn) [Embodiment 31, {1-[(2-Amino-4-phenyl-butyrylamino)-methyl]-cyclohexyl}-acetic acid ethyl ester] |  |  | 12.30 | 11.2 |
| CCOC(=O)CC1(CNC(=O)C2CCNCC2)CCCCC1 [Embodiment 7, (1-{[(Piperidine-4-carbonyl)-amino]-methyl}-cyclohexyl)-acetic acid ethyl ester] |  |  | 1 | 0.9 |
| CC(C)(C)OC(=O)NC(C(=O)NCC1(CC(=O)O)CCCCC1)c1ccccc1 (stereo not drawn) [Embodiment 3, {1-[(2-tert-Butoxycarbonylamino-2-phenyl-acetylamino)-methyl]-cyclohexyl}-acetic acid] | 3.1 | 2.8 |  |  |
| CC(C)(C)OC(=O)NC(CO)C(=O)NCC1(CC(=O)O)CCCCC1 (stereo not drawn) [Embodiment 10, {1-[(2-tert-Butoxycarbonylamino-3-hydroxy-propionylamino)-methyl]-cyclohexyl}-acetic acid] |  |  | 20.7 | 18.8 |
| CCOC(=O)CC1(CNC(=O)c2ccccc2)CCCCC1 [Embodiment 8, [1-(Benzoylamino-methyl)-cyclohexyl]-acetic acid ethyl ester] |  |  | 21.4 | 19.5 |
